# Biological target: Phospholipase A2 group V (Homo sapiens) (UniProt P39877)
# Assay: Inhibition of recombinant human sPLA2-V
# Phospholipase A2 group V (Homo sapiens), sequence (P39877 whole entry, looked up): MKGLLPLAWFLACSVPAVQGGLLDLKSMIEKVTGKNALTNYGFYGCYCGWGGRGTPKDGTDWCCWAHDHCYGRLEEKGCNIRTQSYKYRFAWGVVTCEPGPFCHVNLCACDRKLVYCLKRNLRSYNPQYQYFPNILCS
row,Structure (SMILES),IC50 [nM]
1,C[C@@H]1C[C@H]2[C@@H]3CCC4=CC(=O)C=C[C@]4(C)[C@@]3(F)[C@@H](O)C[C@]2(C)[C@@]1(O)C(=O)CO [dexamethasone (tetramethyl-rhodamine conjugated )],590
2,COc1ccnc(Nc2n[nH]c(N)c2C#N)c1,3100
3,COc1ccnc(Nc2nn3c(SC)c(C#N)c(O)nc3c2C#N)c1,1000
4,COc1ccnc(Nc2nn3c(SC)c(C#N)c(N)nc3c2C#N)c1,2600
5,COc1ccnc(Nc2nn3c(C)cc(C)nc3c2C#N)c1,3200

# More lines, now with the values ahead:
row,IC50 [nM],Structure (SMILES)
1,3200,CCOc1cc(N)n2nc(Nc3cc(OC)ccn3)c(C#N)c2n1
2,1700,CCOc1cc(C)nc2c(C#N)c(Nc3cc(OC)ccn3)nn12
